US20070128217A1 (priority 2003, published 2007)

Columns and labels:
[1] = system: recombinant human anti-SARS-CoV antibody 03-018; format: binding; design: Binding of antibody 03-018 to linear peptides of the N protein of SARS-CoV Urbani / Binding of antibody 03-018 to looped/cyclic peptides of the N protein of SARS-CoV Urbani: unit not given here
[2] = system: antibodies in sera from SARS patients (sera 1a, 1b, 2, 6, 37, 62, London, SARS-yellow, SARS-green); format: binding, human; design: Binding of serum 6 to linear peptides of protein X1 of SARS-CoV Urbani / Binding of serum 37 to linear peptides of protein X1 of SARS-CoV Urbani / Binding of serum 6 to looped/cyclic peptide (PEPSCAN-ELISA) / Binding of serum 37 to looped/cyclic peptide (PEPSCAN-ELISA) / Binding of serum 37 to looped/cyclic peptides of protein X1 of SARS-CoV Urbani / Binding of serum 6 to linear peptides of protein X2 / Binding of serum 37 to linear peptides of protein X2 / Binding of serum 37 to looped/cyclic peptides of protein X2 of SARS-CoV Urbani / Binding of serum 6 to linear peptides of protein M of SARS-CoV Urbani / Binding of serum 37 to linear peptides of protein M of SARS-CoV Urbani / Binding of serum 6 to looped/cyclic peptides of protein M of SARS-CoV Urbani / Binding of serum 37 to looped/cyclic peptides of protein M of SARS-CoV Urbani / Binding of serum 6 to linear peptides of protein X3 of SARS-CoV Urbani / Binding of serum 37 to linear peptides of protein X3 of SARS-CoV Urbani / Binding of serum 37 to looped/cyclic peptides of protein X3 of SARS-CoV Urbani / Binding of serum 6 to linear peptides of protein X4 of SARS-CoV Urbani / Binding of serum 37 to linear peptides of protein X4 of SARS-CoV Urbani / Binding of serum 37 to looped/cyclic peptides of protein X4 of SARS-CoV Urbani / Binding of serum 6 to linear peptides of protein X5 of SARS-CoV Urbani / Binding of serum 37 to linear peptides of protein X5 of SARS-CoV Urbani / Binding of serum 37 to looped/cyclic peptides of protein X5 of SARS-CoV Urbani / Binding of serum 6 to linear peptides of protein N of SARS-CoV Urbani / Binding of serum 37 to linear peptides of protein N of SARS-CoV Urbani / Binding of serum 6 to linear peptide (PEPSCAN-ELISA) / Binding of serum 1a to looped/cyclic peptides of protein N of SARS-CoV Urbani / Binding of serum 1b to looped/cyclic peptides of protein N of SARS-CoV Urbani / Binding of serum 2 to looped/cyclic peptides of protein N of SARS-CoV Urbani / Binding of serum 6 to looped/cyclic peptides of protein N of SARS-CoV Urbani / Binding of serum 37 to looped/cyclic peptides of protein N of SARS-CoV Urbani / Binding of serum 62 to looped/cyclic peptides of protein N of SARS-CoV Urbani / Binding of serum London to looped/cyclic peptides of protein N of SARS-CoV Urbani / Binding of serum SARS-green to looped/cyclic peptides of protein N of SARS-CoV Urbani: unit not given here
[3] = system: rabbit serum obtained by immunizing a rabbit with the SARS-CoV strain Frankfurt 1; format: binding; design: Binding of a rabbit serum to linear peptides / Binding of a rabbit serum to looped peptides / Rabbit serum linear peptides / Rabbit serum looped peptides / Binding of a rabbit serum to linear peptides of protein N of SARS-CoV Urbani (Rabbit serum linear peptides) / Binding of a rabbit serum to looped/cyclic peptides of protein N of SARS-CoV Urbani (Rabbit serum looped peptides): unit not given here
[4] = system: control sera (pooled serum of ten healthy LUMC hospital workers; commercial negative donor pooled serum from the Dutch bloodbank); format: binding, human; design: Binding of Control serum LUMC to linear peptides / Binding of Control serum Blood-bank to linear peptides / Binding of Control serum LUMC to looped peptides / Binding of Control Serum Blood-Bank to Looped peptides / Binding of Control serum LUMC to linear peptides of the protein M of SARS-CoV Urbani / Binding of Control serum Blood-bank to linear peptides of the protein M of SARS-CoV Urbani / Binding of Control serum LUMC to looped peptides of the protein M of SARS-CoV Urbani / Binding of Control Serum Blood-Bank to Looped peptides of the protein M of SARS-CoV Urbani: unit not given here

Sequence | Binding of antibody 03-018 to linear peptides of the N protein of SARS-CoV Urbani [1] | Binding of antibody 03-018 to looped/cyclic peptides of the N protein of SARS-CoV Urbani [1] | Binding of serum 1a to linear peptides of protein N of SARS-CoV Urbani [2] | Binding of serum 1a to looped/cyclic peptides of protein N of SARS-CoV Urbani [2] | Binding of serum 1b to linear peptides of protein N of SARS-CoV Urbani [2] | Binding of serum 1b to looped/cyclic peptides of protein N of SARS-CoV Urbani [2] | Binding of serum 2 to linear peptides of protein N of SARS-CoV Urbani [2] | Binding of serum 2 to looped/cyclic peptides of protein N of SARS-CoV Urbani [2] | Binding of serum 6 to linear peptides of protein N of SARS-CoV Urbani [2] | Binding of serum 6 to looped/cyclic peptides of protein N of SARS-CoV Urbani [2] | Binding of serum 37 to linear peptides of protein N of SARS-CoV Urbani [2] | Binding of serum 37 to looped/cyclic peptides of protein N of SARS-CoV Urbani [2] | Binding of serum 62 to linear peptides of protein N of SARS-CoV Urbani [2] | Binding of serum 62 to looped/cyclic peptides of protein N of SARS-CoV Urbani [2] | Binding of serum London to linear peptides of protein N of SARS-CoV Urbani [2] | Binding of serum London to looped/cyclic peptides of protein N of SARS-CoV Urbani [2] | Binding of serum SARS-green to looped/cyclic peptides of protein N of SARS-CoV Urbani [2] | Binding of serum SARS-yellow to looped/cyclic peptides of protein N of SARS-CoV Urbani [2] | Binding of a rabbit serum to linear peptides of protein N of SARS-CoV Urbani (Rabbit serum linear peptides) [3] | Binding of a rabbit serum to looped/cyclic peptides of protein N of SARS-CoV Urbani (Rabbit serum looped peptides) [3] | also measured
AIKLDDKDPQFKDNV | 0.1 | 0.2 | 0.2 | 0.3 | 0.1 | 0.2 | 0.2 | 0.3 | 0.2 | 0.2 | 0.8 | 0.5 | 0.9 | 0.4 | 0.6 | 0.4 | 0.4 | 0.2 | 0.1 | 0.3 | Binding of serum SARS-green to linear peptides of protein N of SARS-CoV Urbani [2]: 0.7; Binding of serum SARS-yellow to linear peptides of protein N of SARS-CoV Urbani [2]: 0.6; Control Serum Blood-Bank Looped peptides [4]: 0.5; Control serum Blood-bank linear peptides [4]: 0.7; Control serum LUMC linear peptides [4]: 0.8; Control serum LUMC looped peptides [4]: 0.5
ALLLLDRLNQLESKV | 0.1 | 0.3 |  | 0.4 |  | 0.3 |  | 0.5 |  | 0.3 |  | 1.0 |  | 0.9 |  | 0.5 | 0.7 | 0.5 | 0.1 | 0.4 | Binding of serum 1a to linear peptide (PEPSCAN-ELISA) [2]: 0.2; Binding of serum 1b to linear peptide (PEPSCAN-ELISA) [2]: 0.1; Binding of serum 2 to linear peptide (PEPSCAN-ELISA) [2]: 0.2; Binding of serum 6 to linear peptide (PEPSCAN-ELISA) [2]: 0.1; Binding of serum 37 to linear peptide (PEPSCAN-ELISA) [2]: 0.7; Binding of serum 62 to linear peptide (PEPSCAN-ELISA) [2]: 0.4; Binding of serum London to linear peptide (PEPSCAN-ELISA) [2]: 0.6; Binding of serum SARS-green to linear peptide (PEPSCAN-ELISA) [2]: 0.2; Binding of serum SARS-yellow to linear peptide (PEPSCAN-ELISA) [2]: 0.5; Binding of Control Serum Blood-Bank to Looped peptides [4]: 0.8; Binding of Control serum Blood-bank to linear peptides [4]: 0.8; Binding of Control serum LUMC to linear peptides [4]: 0.7; Binding of Control serum LUMC to looped peptides [4]: 0.8
ALNTPKDHIGTRNPN | 0.1 | 0.2 | 0.3 | 0.4 | 0.1 | 0.3 | 0.3 | 0.5 | 0.2 | 0.3 | 0.7 | 0.5 | 0.6 | 0.5 | 0.5 | 0.3 | 0.5 | 0.0 | 0.2 | 0.2 | Binding of serum SARS-green to linear peptides of protein N of SARS-CoV Urbani [2]: 0.4; Binding of serum SARS-yellow to linear peptides of protein N of SARS-CoV Urbani [2]: 0.5; Binding of Control Serum Blood-Bank to Looped peptides [4]: 0.5; Binding of Control serum Blood-bank to linear peptides [4]: 0.8; Binding of Control serum LUMC to linear peptides [4]: 0.6; Binding of Control serum LUMC to looped peptides [4]: 0.4
ALTQHGKEELRFPRG | 0.2 | 0.2 | 0.3 | 0.2 | 0.2 | 0.1 | 0.3 | 0.2 | 0.2 | 0.1 | 0.9 | 0.5 | 0.8 | 0.2 | 0.5 | 0.3 | 0.1 | 0.3 | 0.2 | 0.3 | Binding of serum SARS-green to linear peptides of protein N of SARS-CoV Urbani [2]: 0.6; Binding of serum SARS-yellow to linear peptides of protein N of SARS-CoV Urbani [2]: 0.6; Binding of Control Serum Blood-Bank to Looped peptides [4]: 0.4; Binding of Control serum Blood-bank to linear peptides [4]: 0.9; Binding of Control serum LUMC to linear peptides [4]: 0.7; Binding of Control serum LUMC to looped peptides [4]: 0.4
